Laboratory results from patent US10814018B2, “Isotopically labeled deoxy-glucose and derivatives thereof, compositions comprising them and uses thereof” (HADASIT MEDICAL RESEARCH SERVICE & DEVELOPMENT LTD., priority 2010, dated 2020).
Each block holds one compound with its values, some of them ahead of it.

Experiments:
[1] = rats, intravenous, cited from earlier work
[2] = T1 of glucose 13C nuclei by inversion recovery pulse sequence (Varian NMR spectrometers, 7 T and 11.8 T); assay type: physicochemical
Description: The effect of glucose concentration on the T1 of its carbon positions was investigated at 7 T (FIG. 1A) and at 11.8 T (FIG. 1B) using Varian NMR spectrometers (The Netherlands). [U-^13C6, ^2H7]glucose was obtained from Cambridge Isotopes Laboratories (Andover, Mass., USA). The T1 of [U-^13C6, ^2H7]glucose ^13C's was measured using the inversion recovery pulse sequence. […] The mean difference between the T1s of the two concentrations was 6.9 s (P=2*10^−6, paired t-test) at 7 T. The mean difference in T1 at 11.8 T was 4.5 s (P=4*10^−5, paired t-test). The labels C1α and C1β (FIG. 1-3) mark the two signals of the glucose carbon at position 1 in the α and β anomers. The labels Ciα and Ciβ (FIG. 1-3) mark the two signals of the glucose carbon at position i in the α and β anomers.
The effect of the magnetic field strength on the T1 of glucose carbons was investigated at 7 T (FIG. 2, solid gray columns) and at 11.8 T (FIG. 2, diagonal pattern columns). [U-^13C6, ^2H7]glucose T1 at 400 mM was measured using the inversion recovery pulse sequence in the two spectrometers. […] The mean difference in T1 between the two fields was 2 s (P=6*10^−4, paired t-test).
To increase the signal of hyperpolarized deoxy-glucose and hyperpolarized glucose, stable isotope labeling by carbon-13 in all of the carbon positions was used. The effect of direct carbon-13 to carbon-13 bonding on the individual carbon-13 T1s was investigated to study the effect of these added dipolar interactions on T1 relaxation times. To this end, two compounds were investigated (both from Cambridge Isotopes Laboratories): [U-^13C6, ^2H7]glucose (FIG. 3, solid gray columns) and [^2H7]glucose (FIG. 3, diagonal pattern columns), both at 400 mM concentration. The T1 at 11.8 T was measured using the inversion recovery pulse sequence. While both compounds are fully deuterated, in the [U-^13C6, ^2H7]glucose molecule the carbon positions are 99% occupied by ^13C nuclei. In the [^2H7]glucose molecule, only ca. 1.1% of each of the carbon positions are occupied by ^13C nuclei (due to the natural abundance distribution of ^13C). The chance for having two directly bonded ^13C nuclei in this molecule is therefore 0.01% (negligible). Therefore this measurement was indicative of the T1 of singly ^13C labeled glucose. […] Therefore, it was deducted that direct bonding of additional ^13C nuclei led to a decrease in glucose ^13C T1s, due to the additional dipolar interactions.

[3] = Hyperpolarized glucose carbon-13 images in vivo at 3 T after tail vein bolus; set-up: species or system rats
Description: Hyperpolarized glucose images were recorded at 3 T in vivo. As depicted in FIG. 5, hyperpolarized [U-^13C6, ^2H7]glucose provided a high signal on carbon-13 images recorded in vivo. Normal rats were anesthetized, and hyperpolarized [U-^13C6, ^2H7]glucose was injected through the tail vein in a bolus of 12 s total duration. Images were recorded at 8, 12, and 20 s from the onset of the bolus injection (i.e. during and after the bolus). […] Arterial hyperpolarized media flow at this time is not likely, as the signal in the kidneys is not yet visible. […] The signal from the injected hyperpolarized media is extremely high with no background signal. At 12 s (FIG. 5B), at the end of the bolus injection, signal intensity in the main vasculature and the heart is still high, with substantial intensity observed in the kidneys (see indicating arrows). At 20 s from bolus initiation (FIG. 5C), signal from the heart is the most intense signal in the image, about 40% higher than signal in the vasculature and 20% higher than signal in the kidneys. Still, signal in the kidneys is clearly observed, as well as signal in other tissues such as the liver (see indicating arrows and color change). The hyperpolarized glucose signal observed in the heart at 20 s from bolus start is more intense than signal in the vasculature and the kidneys. […] In the anaesthetized rat, the only tissue that is expected to actively take up glucose is the myocardium, because under anesthesia it is the only active muscle. […] It is noted that heart anatomy cannot be discerned from these hyperpolarized images since the imaging time (1 s) averaged several heart beats (approximately 6 beats). However, glucose uptake by the myocardium can be determined at short time frames of the order of 20 s using gradient de-phasing of intravoxel moving spins. Using this methodology, hyperpolarized glucose or deoxyglucose signal from capillaries are diminished, while the signal of intracellular hyperpolarized glucose or deoxyglucose are imaged and indicate the level of glucose uptake in the tissue.

[4] = value taken as a consideration in the simulation; cited from earlier work

SMILES: O=CC[C@@H](O)[C@H](O)[C@H](O)CO [2-deoxy-D-glucose]
- heart rate ([1]; 0.25, 0.5, and 1 g/Kg): no change
- respiratory rate ([1]; 0.25, 0.5, and 1 g/Kg): no change
- arterial blood pressure ([1]; 0.25, 0.5, and 1 g/Kg, not in a dose dependent manner): mean decrease
- death ([1]; dose of 0.25, 0.5, and 1 g/Kg): No death

- mean difference in T1 between the two fields (longer at 7 T) ([2]; 400 mM, 7 T vs 11.8 T, P=6*10^-4, paired t-test): 2 s
- T1 of glucose, individual values per carbon position and anomer ([2]; 7 T, 400 mM): 8 to 13 s
- mean difference between the T1s of the two concentrations (longer at 400 mM) ([2]; 7 T, 400 mM vs 4.03 M, P=2*10^-6, paired t-test): 6.9 s
- mean difference in T1 between the two concentrations (longer at 400 mM) ([2]; 11.8 T, 400 mM vs 4.03 M, P=4*10^-5, paired t-test): 4.5 s
- T1 of glucose 13Cs shorter than in [2H7]glucose (natural abundance 13C) ([2]; 11.8 T, 400 mM, P=1.4x10^-3, paired t-test): 3.3 s
SMILES: [2H][13C]1(O)O[13C@]([2H])([13C]([2H])([2H])O)[13C@@]([2H])(O)[13C@]([2H])(O)[13C@@]1([2H])O (stereo partly shown) [[U-^13C6, ^2H7]glucose]
- signal from the heart higher than signal in the kidneys ([3]; 20 s from bolus initiation): ~20%
- signal from the heart higher than signal in the vasculature ([3]; 20 s from bolus initiation): about 40%
- signal on carbon-13 images recorded in vivo ([3]; normal anesthetized rats, tail vein bolus of 12 s): high signal

SMILES: CC(=O)C(=O)O [pyruvate, [1-^13C]pyruvate]
- T1 of pyruvate [4]: 55 s
